Source: PMC11272598, “RG7774 (Vicasinabin), an orally bioavailable cannabinoid receptor 2 (CB2R) agonist, decreases retinal vascular permeability, leukocyte adhesion, and ocular inflammation in animal models” (Frontiers in Pharmacology, 2024)

Legend:
Assay in all cases: CEREP radioligand binding
[1] = molecular target: 5-HT transporter (h) (Homo sapiens, UniProt P31645); conditions: radioligand [^3H]-imipramine
Text: (§1) Supplement Table1.docx, table 3: Supplementary Table S3. RG7774 binding to non-CB1R/CB2R receptors, ion channels, transporters, and enzymes (CEREP, Celle l’Evescault, France; http://www.cerep.fr). | column: % inhibition of control SB (n = 2)

[2] = molecular target: 5-HT1A (h) (Homo sapiens, UniProt P08908); conditions: radioligand [^3H]-8-OH-DPAT
Text: as §1

[3] = molecular target: 5-HT2B (h) (Homo sapiens, UniProt P41595); conditions: radioligand [^125I](±)DOI
Text: as §1

[4] = molecular target: 5-HT7 (h) (Homo sapiens, UniProt P34969); conditions: radioligand [^3H]-LSD
5-HT7 (h), sequence (P34969 whole entry): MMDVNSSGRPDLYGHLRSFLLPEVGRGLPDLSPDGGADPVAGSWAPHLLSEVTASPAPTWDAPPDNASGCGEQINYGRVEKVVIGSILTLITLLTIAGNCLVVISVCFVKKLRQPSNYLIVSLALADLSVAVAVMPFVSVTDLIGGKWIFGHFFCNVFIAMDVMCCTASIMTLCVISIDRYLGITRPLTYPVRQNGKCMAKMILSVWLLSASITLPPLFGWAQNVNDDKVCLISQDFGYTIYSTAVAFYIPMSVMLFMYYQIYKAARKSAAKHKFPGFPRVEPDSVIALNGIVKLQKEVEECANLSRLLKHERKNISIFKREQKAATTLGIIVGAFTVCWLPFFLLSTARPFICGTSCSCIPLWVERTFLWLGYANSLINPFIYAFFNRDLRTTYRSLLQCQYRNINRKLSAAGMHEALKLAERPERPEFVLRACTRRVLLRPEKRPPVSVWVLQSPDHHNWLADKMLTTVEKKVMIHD
Text: as §1

[5] = molecular target: A3 (h) (Homo sapiens, UniProt P0DMS8); conditions: radioligand [^125I]-AB-MECA
A3 (h), sequence (P0DMS8 whole entry): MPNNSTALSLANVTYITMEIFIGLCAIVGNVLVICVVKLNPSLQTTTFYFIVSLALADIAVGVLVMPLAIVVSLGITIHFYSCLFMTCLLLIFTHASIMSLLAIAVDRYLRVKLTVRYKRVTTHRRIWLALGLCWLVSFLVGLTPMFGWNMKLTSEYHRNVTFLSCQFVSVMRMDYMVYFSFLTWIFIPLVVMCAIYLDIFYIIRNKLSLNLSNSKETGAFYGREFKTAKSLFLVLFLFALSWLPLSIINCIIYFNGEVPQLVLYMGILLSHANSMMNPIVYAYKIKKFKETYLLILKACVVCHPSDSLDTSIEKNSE
Text: as §1

[6] = test system: BZD (central); conditions: radioligand [^3H]-flunitrazepam
Text: as §1

[7] = molecular target: Beta 2 (h) (Homo sapiens, UniProt P07550); conditions: radioligand [^3H](-)CGP 12177
Beta 2 (h), sequence (P07550 whole entry): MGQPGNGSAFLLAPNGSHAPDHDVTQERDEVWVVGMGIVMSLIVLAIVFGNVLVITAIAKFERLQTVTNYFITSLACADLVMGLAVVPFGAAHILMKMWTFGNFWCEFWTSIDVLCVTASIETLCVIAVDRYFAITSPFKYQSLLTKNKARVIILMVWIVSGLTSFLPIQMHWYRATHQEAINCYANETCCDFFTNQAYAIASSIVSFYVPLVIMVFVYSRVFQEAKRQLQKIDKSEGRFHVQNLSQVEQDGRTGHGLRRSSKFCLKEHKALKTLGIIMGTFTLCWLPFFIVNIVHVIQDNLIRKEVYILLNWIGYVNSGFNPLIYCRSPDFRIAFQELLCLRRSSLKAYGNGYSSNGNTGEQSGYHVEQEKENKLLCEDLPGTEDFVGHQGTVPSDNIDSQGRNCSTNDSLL
Text: as §1

[8] = molecular target: CXCR2 (Homo sapiens, UniProt P25025); conditions: radioligand [^125I]-IL-8
Text: as §1

[9] = molecular target: D1 (h) (Homo sapiens, UniProt P21728); conditions: radioligand [^3H]-SCH 23390
Text: as §1

[10] = molecular target: D3 (h) (Homo sapiens, UniProt P35462); conditions: radioligand [^3H]-methyl-spiperone
D3 (h), sequence (P35462 whole entry): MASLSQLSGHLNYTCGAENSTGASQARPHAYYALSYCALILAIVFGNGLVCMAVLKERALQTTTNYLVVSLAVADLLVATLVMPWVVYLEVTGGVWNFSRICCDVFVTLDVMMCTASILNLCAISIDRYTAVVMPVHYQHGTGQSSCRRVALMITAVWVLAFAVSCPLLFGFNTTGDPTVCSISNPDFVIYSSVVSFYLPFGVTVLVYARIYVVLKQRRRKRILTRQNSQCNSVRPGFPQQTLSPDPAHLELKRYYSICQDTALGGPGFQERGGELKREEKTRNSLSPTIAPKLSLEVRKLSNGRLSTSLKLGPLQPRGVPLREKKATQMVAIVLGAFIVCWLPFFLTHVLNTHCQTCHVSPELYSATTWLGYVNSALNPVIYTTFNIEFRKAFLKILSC
Text: as §1

[11] = molecular target: D4.4 (h) (Homo sapiens, UniProt P21917); conditions: radioligand [^3H]-methyl-spiperone
Text: as §1

[12] = molecular target: EP4 (h) (Homo sapiens, UniProt P35408); conditions: radioligand [^3H]-PGE2
EP4 (h), sequence (P35408 whole entry): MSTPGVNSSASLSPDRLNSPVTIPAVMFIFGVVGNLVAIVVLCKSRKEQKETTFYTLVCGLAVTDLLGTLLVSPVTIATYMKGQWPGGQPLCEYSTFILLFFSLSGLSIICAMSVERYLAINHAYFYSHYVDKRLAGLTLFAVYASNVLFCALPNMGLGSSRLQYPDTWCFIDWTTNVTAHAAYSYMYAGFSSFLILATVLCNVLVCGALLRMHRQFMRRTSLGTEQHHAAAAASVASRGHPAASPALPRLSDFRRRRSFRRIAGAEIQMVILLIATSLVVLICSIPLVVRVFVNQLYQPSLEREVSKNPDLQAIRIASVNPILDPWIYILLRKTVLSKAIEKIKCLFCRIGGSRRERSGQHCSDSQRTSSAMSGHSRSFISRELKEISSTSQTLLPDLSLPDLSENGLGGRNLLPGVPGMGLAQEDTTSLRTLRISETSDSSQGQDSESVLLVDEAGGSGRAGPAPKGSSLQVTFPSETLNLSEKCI
Text: as §1

[13] = test system: GABA (non-selective); conditions: radioligand [^3H]-GABA
Text: as §1

[14] = molecular target: M2 (h) (Homo sapiens, UniProt P08172); conditions: radioligand [^3H]-AF-DX 384
M2 (h), sequence (P08172 whole entry): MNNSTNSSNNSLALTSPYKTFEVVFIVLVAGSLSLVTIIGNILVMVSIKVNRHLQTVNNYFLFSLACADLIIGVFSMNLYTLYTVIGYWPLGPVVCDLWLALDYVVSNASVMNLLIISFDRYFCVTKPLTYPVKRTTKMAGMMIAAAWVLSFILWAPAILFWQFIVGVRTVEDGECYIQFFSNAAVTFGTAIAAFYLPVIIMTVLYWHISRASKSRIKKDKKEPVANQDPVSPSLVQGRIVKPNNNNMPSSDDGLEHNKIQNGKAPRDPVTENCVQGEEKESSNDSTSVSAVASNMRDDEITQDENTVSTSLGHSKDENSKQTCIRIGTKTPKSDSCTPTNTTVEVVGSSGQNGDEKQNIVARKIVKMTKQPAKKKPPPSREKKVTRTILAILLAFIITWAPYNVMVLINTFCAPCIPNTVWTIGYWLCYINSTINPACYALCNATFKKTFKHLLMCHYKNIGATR
Text: as §1

[15] = molecular target: M3 (h) (Homo sapiens, UniProt P20309); conditions: radioligand [^3H]-4-DAMP
Text: as §1

[16] = molecular target: M5 (h) (Homo sapiens, UniProt P08912); conditions: radioligand [^3H]-4-DAMP
M5 (h), sequence (P08912 whole entry): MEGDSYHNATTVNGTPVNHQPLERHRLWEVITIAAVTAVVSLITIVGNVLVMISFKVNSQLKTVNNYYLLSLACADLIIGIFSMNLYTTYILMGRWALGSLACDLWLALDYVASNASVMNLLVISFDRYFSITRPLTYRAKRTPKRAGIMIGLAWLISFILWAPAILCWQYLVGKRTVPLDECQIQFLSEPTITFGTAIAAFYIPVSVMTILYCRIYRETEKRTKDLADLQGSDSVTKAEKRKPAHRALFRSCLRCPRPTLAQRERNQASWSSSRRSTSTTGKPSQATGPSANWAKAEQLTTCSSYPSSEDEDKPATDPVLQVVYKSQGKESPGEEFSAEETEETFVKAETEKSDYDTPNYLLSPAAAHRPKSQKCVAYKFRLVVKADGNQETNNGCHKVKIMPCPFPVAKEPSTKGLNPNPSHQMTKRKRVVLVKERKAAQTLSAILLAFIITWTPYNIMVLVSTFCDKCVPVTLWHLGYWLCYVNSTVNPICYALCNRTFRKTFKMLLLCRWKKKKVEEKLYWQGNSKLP
Text: as §1

[17] = molecular target: MT1 (ML1A) (h) (Homo sapiens, UniProt P48039); conditions: radioligand [^125I]-2-iodomelatonin
Text: as §1

[18] = molecular target: NK3 (h) (Homo sapiens, UniProt P29371); conditions: radioligand [^3H]-SR 142801
Text: as §1

[19] = molecular target: Norepinephrine transporter (h) (Homo sapiens, UniProt P23975); conditions: radioligand [^3H]-nisoxetine
Norepinephrine transporter (h), sequence (P23975 whole entry): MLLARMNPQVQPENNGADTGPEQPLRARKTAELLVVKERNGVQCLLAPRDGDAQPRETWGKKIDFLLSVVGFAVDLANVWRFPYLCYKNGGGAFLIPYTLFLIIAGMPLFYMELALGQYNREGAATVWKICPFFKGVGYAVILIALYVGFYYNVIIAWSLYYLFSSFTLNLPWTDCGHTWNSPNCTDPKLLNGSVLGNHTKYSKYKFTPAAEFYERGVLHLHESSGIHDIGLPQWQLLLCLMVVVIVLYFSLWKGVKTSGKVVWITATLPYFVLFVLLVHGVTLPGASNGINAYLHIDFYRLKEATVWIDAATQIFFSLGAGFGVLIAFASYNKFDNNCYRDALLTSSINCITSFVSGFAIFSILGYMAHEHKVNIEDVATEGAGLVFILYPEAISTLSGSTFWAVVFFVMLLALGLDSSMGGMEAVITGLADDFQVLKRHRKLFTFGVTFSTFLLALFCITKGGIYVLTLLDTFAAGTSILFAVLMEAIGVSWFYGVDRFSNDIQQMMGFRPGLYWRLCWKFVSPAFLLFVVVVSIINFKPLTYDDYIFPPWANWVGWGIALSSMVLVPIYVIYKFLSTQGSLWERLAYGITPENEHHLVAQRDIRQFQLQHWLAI
Text: as §1

[20] = test system: P2X; conditions: radioligand [^3H]-α,β-MeATP
Text: as §1

[21] = test system: PCP; conditions: radioligand [^3H]-TCP
Text: as §1

[22] = molecular target: V1a (h) (Homo sapiens, UniProt P37288); conditions: radioligand [^3H]-AVP
Text: as §1

[23] = molecular target: VPAC1 (VIP1) (h) (Homo sapiens, UniProt P32241); conditions: radioligand [^125I]-VIP
VPAC1 (VIP1) (h), sequence (P32241 31-457): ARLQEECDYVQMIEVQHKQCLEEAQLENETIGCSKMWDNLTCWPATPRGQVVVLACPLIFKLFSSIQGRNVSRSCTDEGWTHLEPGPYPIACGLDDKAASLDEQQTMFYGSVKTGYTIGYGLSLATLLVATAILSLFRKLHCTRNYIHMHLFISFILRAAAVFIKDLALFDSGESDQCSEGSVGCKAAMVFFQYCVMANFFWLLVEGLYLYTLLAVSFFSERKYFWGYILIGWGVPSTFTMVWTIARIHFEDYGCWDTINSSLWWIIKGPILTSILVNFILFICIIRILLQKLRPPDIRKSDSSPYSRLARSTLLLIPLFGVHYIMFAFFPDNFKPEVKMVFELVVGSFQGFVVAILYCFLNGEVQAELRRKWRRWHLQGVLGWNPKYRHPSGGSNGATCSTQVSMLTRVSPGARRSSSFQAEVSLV
Text: as §1

[24] = molecular target: Y1 (h) (Homo sapiens, UniProt P25929); conditions: radioligand [^125I]-peptide YY
Text: as §1

[25] = molecular target: Y2 (h) (Homo sapiens, UniProt P49146); conditions: radioligand [^125I]-peptide YY
Y2 (h), sequence (P49146 whole entry): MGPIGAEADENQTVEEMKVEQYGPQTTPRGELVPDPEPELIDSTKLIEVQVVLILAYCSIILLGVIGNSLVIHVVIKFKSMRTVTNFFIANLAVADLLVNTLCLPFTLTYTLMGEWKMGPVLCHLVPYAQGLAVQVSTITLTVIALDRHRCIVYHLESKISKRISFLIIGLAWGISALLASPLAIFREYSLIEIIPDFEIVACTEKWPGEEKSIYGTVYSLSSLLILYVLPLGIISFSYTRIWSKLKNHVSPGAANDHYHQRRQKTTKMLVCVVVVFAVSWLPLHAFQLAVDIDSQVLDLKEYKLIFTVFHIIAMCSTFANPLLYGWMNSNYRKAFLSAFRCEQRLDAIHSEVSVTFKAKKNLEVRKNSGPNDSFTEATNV
Text: as §1

[26] = molecular target: δ(DOP) (h) (Homo sapiens, UniProt P41143); conditions: radioligand [^3H]-DADLE
δ(DOP) (h), sequence (P41143 whole entry): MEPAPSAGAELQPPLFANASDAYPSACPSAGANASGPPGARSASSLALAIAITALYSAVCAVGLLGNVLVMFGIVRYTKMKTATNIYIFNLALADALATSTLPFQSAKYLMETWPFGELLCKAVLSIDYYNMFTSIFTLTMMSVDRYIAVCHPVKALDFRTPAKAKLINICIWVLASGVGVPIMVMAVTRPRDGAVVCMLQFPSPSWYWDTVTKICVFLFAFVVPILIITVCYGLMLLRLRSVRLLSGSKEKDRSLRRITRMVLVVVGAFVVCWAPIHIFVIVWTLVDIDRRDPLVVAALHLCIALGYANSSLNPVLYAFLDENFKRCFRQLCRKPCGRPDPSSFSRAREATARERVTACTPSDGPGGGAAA
Text: as §1

With `Cn1nnnc1Cn1nnc2c(N3CC[C@H](O)C3)nc(C(C)(C)C)nc21` [RG7774, (S)-1-(5-tert-butyl-3-[(1-methyl-1H-tetrazol-5-yl)methyl]-3H-[1,2,3]triazolo[4,5-d]pyrimidin-7-yl)pyrrolidin-3-ol] the “% inhibition of control SB (n = 2)” value [1] was 22.2%, the “% inhibition of control SB (n = 2)” value [2] was 3.6% and the “% inhibition of control SB (n = 2)” value [3] was “–24.1%”. The “% inhibition of control SB (n = 2)” value [4] was 3.9%, the “% inhibition of control SB (n = 2)” value [5] was “–0.6%” and the “% inhibition of control SB (n = 2)” value [6] was “–0.7%”. The “% inhibition of control SB (n = 2)” value [7] was “–1.3%”, the “% inhibition of control SB (n = 2)” value [8] was “–7.7%” and the “% inhibition of control SB (n = 2)” value [9] was “–1.0%”. The “% inhibition of control SB (n = 2)” value [10] was “–0.3%”, the “% inhibition of control SB (n = 2)” value [11] was 3.7% and the “% inhibition of control SB (n = 2)” value [12] was “–8.7%”. For the same molecule, the “% inhibition of control SB (n = 2)” value [13] was “–16.1%”, the “% inhibition of control SB (n = 2)” value [14] was “–8.7%” and the “% inhibition of control SB (n = 2)” value [15] was “–6.7%”. The “% inhibition of control SB (n = 2)” value [16] was “–2.7%”, the “% inhibition of control SB (n = 2)” value [17] was 7.9% and the “% inhibition of control SB (n = 2)” value [18] was 8.2%. For the same molecule, the “% inhibition of control SB (n = 2)” value [19] was 5.4%, the “% inhibition of control SB (n = 2)” value [20] was 25.9% and the “% inhibition of control SB (n = 2)” value [21] was “–4.4%”. For the same molecule, the “% inhibition of control SB (n = 2)” value [22] was 7.5%, the “% inhibition of control SB (n = 2)” value [23] was 7.8% and the “% inhibition of control SB (n = 2)” value [24] was “–5.5%”. The “% inhibition of control SB (n = 2)” value [25] was “–3.6%” and the “% inhibition of control SB (n = 2)” value [26] was 4.7%.
